Measured values: article PMC4738175 (Cancer letters, 2015)

Tests used:
sEH [1] = biological target: T1, sEH (Homo sapiens, UniProt P34913); assay: sEH enzyme assay; type: biochemical; details: read-out: sEH IC50
T1 sequence (P34913 1-555): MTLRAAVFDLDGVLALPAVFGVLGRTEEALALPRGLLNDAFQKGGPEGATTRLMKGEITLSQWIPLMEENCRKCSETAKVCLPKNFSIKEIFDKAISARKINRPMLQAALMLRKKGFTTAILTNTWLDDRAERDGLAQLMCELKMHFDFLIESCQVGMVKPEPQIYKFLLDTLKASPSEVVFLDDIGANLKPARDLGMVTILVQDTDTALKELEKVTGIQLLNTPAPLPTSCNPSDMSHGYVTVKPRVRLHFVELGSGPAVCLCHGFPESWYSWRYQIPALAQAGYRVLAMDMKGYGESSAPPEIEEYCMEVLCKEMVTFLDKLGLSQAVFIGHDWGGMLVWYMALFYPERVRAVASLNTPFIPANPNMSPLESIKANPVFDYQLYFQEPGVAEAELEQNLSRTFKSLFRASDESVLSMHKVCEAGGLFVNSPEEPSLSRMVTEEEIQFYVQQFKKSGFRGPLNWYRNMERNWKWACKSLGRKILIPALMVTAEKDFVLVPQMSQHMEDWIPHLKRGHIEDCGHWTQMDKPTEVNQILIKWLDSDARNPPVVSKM

[2] = test system: phosphorylation of MEK1/2 and ERK1/2; assay: Western blot of phosphorylated MEK1/2 and ERK1/2 in PK03 cells; type: cell-based, mouse; details: PK03 cells, 3, 10 or 30μM, 24 hours
phosphorylation of c-RAF = assay: Western blot of phosphorylated c-RAF in PK03 cells; type: cell-based, mouse; details: PK03 cells, 3, 10 or 30μM, 24 hours
sEH [3] = assay: Plasma oxylipin metabolic profile by LC-MS/MS in mice implanted with PK03 cells; type: in vivo
Toxicity in mice = type: in vivo; details: 35 days treatment
in vivo = details: male, Swiss Webster, mouse, po, 1 mg/kg
PK03 cells [4] = assay: Colony formation assay in PK03 cells; details: Mus musculus, read-out: IC50 dose, PK03 cell growth
PK03 cells [5] = details: 10mg/kg body weight in drinking water, end of 5 weeks, vs PK03 control
PK03 tumors = assay: Histopathology and immunohistochemistry; details: 10mg/kg; for number of MPO-labeled neutrophils/macrophages per high power field: 40X objective lens, P< 0.05 vs control; for tumor morphology vs PK03 control tumors: histopathology
phosphorylated ERK1/2 = assay: Immunohistochemical staining of phosphorylated ERK1/2 in PK03 tumors; details: 10mg/kg, n = 3 mice/group, vs PK03 control
[6] = cited from earlier work

Q: For CNC(=O)c1cc(O[C@H]2CC[C@@H](NC(=O)Nc3ccc(Cl)c(C(F)(F)F)c3)CC2)ccn1 [c-CUPM], which IC50 (sEH [1]) is on record?
A: 0.0005 µM

Q: What does the source list for CNC(=O)c1cc(O[C@H]2CC[C@H](NC(=O)Nc3ccc(Cl)c(C(F)(F)F)c3)CC2)ccn1 [t-CUPM, trans-4-{4-[3-(4-chloro-3-trifluoromethyl-phenyl)-ureido]-cyclohexyloxy}-pyridine-2-carboxylic acid methylamide]?
A: inhibition of phosphorylation of MEK1/2 and ERK1/2 [2]: significantly inhibited; inhibition of phosphorylation of c-RAF (phosphorylation of c-RAF): significantly inhibited; effect on cyclooxygenase and lipoxygenase mediated metabolites (prostaglandins, thromboxane, leukotrienes, HETE) (sEH [3]): no significant difference; toxic effect grossly and histopathologically (Toxicity in mice): did not produce any toxic effect; half-life (in vivo): 2.2 ± 1.6 h; IC50 (PK03 cells [4]): 8.1 µM; tumor size (PK03 cells [5]): 275.9 ± 68.9 mm^3; tumor weight (PK03 cells [5]): 0.25 ± 0.06 g; number of MPO-labeled neutrophils/macrophages per high power field (PK03 tumors): 12.4 ± 6.1; tumor morphology vs PK03 control tumors (PK03 tumors): more glandular differentiation with lumen formation and less inflammatory cells reaction; staining intensity of phosphorylated ERK1/2 (phosphorylated ERK1/2): 60 ± 19.2

Q: Which results are given for CNC(=O)c1cc(Oc2ccc(NC(=O)Nc3ccc(Cl)c(C(F)(F)F)c3)cc2)ccn1 [Sorafenib, reference compound]?
A: inhibition of phosphorylation of MEK1/2 and ERK1/2 [2]: significantly inhibited; inhibition of phosphorylation of c-RAF (phosphorylation of c-RAF): but not by sorafenib or t-AUCB; effect on cyclooxygenase and lipoxygenase mediated metabolites (prostaglandins, thromboxane, leukotrienes, HETE) (sEH [3]): no significant difference; clinically achievable plasma concentration [6]: 10 µM; Tmax (in vivo): 2 h; half-life (in vivo): 1.5 ± 0.5 h; IC50 (PK03 cells [4]): 9 µM; number of MPO-labeled neutrophils/macrophages per high power field (PK03 tumors): 15.1 ± 9.8; tumor morphology vs PK03 control tumors (PK03 tumors): more glandular differentiation with lumen formation and less inflammatory cells reaction
